Assay results taken from US20100298314A1, “NOVEL JNK INHIBITORS” (Schering Corporation, priority 2006, published 2010).
Read-outs that look alike come from different tables or passages of the source.

Assays:
Type in all cases: biochemical
[1] = molecular target: JNK3 (Homo sapiens, UniProt P53779); test: JNK3 kinase DELFIA (phosphorylation of biotinylated GST-ATF2); details: final ATP 2 uM
Experimental: (§1) Before initiation of kinase reactions, compounds were pre-incubated with the enzyme for 10 minutes. Pre-incubation reactions contained 50 mM HEPES pH 7.3, 10 mM MgCl2, 1 mM DTT, 75 mM NaCl, 1 mM EDTA, 1 mM EGTA, 0.01% CHAPS, 2 nM JNK1, 6 ug/mL biotinylated GST-ATF2, 0.1 mg/ml BSA, 5% DMSO and 0-100 μM compound in a total volume of 40 μL. After a 10 minute room temperature pre-incubation, 10 μL of 35 μM ATP was added to start the reaction (final concentration of ATP=7 uM). Reactions were incubated at room temperature for 30 minutes. A small aliquot (10 uL) was taken and quenched by adding into 190 uL of DELFIA Assay buffer containing 100 mM EDTA. The amount of phosphate transferred to biotinylated GST-ATF2 was measured using the Dissociation Enhanced Lanthanide Fluorescence Immuno-assay (DELFIA) from Perkin Elmer according to manufacturers protocol. Briefly, biotinylated GST-ATF2 was captured on streptavidin coated plates for 1 hour, washed twice, then incubated for 1 hour with a 1:1000 dilution of rabbit-anti-phospho-ATF2 antibody and a 1:3500 dilution of Europium-labeled anti-rabbit secondary antibody. Free antibody was removed with six washes, Europium was dissociated from the antibody, and Europium fluorescence was measured using an excitation wavelength of 340 nm and an emission wavelength of 615 nm. JNK2 and JNK3 kinase reactions were carried out similarly, with the exception that the final concentration of ATP was 4 uM and 2 uM, respectively.

[2] = molecular target: JNK2 (Homo sapiens, UniProt P45984); test: JNK2 kinase DELFIA (phosphorylation of biotinylated GST-ATF2); details: final ATP 4 uM, reported as range for a group
Experimental: as §1

[3] = molecular target: JNK1 (Homo sapiens, UniProt P45983); test: JNK1 kinase DELFIA (phosphorylation of biotinylated GST-ATF2)
Experimental: as §1

[4] = DELFIA, 2 nM JNK1, final ATP 7 uM, 10 min pre-incubation, reported as range for a group

Sequence of JNK1 (P45983 whole entry, species assumed): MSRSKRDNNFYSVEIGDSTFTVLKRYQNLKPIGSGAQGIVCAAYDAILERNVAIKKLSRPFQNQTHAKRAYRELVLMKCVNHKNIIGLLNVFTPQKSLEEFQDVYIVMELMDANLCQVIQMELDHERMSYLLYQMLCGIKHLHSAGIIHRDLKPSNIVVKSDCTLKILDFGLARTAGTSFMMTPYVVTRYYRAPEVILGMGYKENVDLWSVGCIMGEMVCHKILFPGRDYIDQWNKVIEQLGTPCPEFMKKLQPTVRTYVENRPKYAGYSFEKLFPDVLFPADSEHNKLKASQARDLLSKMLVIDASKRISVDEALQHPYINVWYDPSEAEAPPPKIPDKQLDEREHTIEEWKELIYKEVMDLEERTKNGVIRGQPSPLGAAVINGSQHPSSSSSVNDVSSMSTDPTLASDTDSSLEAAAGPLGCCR
Sequence of JNK3 (P53779 whole entry, species assumed): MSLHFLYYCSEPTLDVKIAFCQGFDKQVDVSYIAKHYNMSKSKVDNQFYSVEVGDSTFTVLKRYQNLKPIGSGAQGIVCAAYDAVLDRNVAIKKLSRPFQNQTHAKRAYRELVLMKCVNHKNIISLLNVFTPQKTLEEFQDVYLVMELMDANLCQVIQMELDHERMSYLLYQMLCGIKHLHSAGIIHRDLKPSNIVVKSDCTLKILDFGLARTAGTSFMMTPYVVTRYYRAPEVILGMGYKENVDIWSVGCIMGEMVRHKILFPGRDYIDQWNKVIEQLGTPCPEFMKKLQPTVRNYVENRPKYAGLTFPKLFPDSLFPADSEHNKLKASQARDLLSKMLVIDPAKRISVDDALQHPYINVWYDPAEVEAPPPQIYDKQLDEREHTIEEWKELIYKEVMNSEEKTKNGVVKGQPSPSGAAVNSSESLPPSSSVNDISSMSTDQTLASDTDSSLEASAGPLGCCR
Sequence of JNK2 (P45984 whole entry, species assumed): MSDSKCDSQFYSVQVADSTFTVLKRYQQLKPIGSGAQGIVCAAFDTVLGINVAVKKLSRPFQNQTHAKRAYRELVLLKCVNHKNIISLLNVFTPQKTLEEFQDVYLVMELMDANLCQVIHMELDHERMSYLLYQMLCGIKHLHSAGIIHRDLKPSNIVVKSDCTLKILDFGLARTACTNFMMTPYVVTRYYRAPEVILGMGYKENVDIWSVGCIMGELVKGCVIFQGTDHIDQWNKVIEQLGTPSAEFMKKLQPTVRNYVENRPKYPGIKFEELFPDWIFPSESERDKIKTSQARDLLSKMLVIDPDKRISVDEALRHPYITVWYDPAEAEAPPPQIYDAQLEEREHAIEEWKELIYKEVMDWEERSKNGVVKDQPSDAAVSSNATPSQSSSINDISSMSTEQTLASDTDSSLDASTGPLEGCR

Row | Compound | IC50 [1] [nM] | IC50 [2] [nM] | IC50 [3, 4] [nM] | IC50 ([3]; read-out: JNK 1 IC50) [nM]
1 | Cc1nc2ccc(CNC(=O)c3cccn4c(C(=O)N[C@H](CO)CC(C)C)c(C)nc34)cc2[nH]1 [Compound 599] | 9 to 50 | 4 to 46 | 6 to 100 | 
2 | Cc1cccc(-n2cc(CNC(=O)c3cccn4c(C(=O)N[C@H](CO)CC(C)C)cnc34)cn2)c1 [Compound 605] | 9 to 50 | 4 to 46 | 6 to 100 | 21
